This is an account of results in US7265131B2, “Isoquinolinone derivatives and their use as therapeutic agents” (Exelixis, Inc., priority 2002, dated 2007).

Where only a bound is given, the exact number is not on record here.

The experiment addresses T1, LXR β (Homo sapiens, UniProt P55055).
T1 construct: comprising full-length LXR α (pCMX-hLXR α), LXR β (pCMX-hLXR β), or RXR α (pCMX-RXR); expressed in transfected cells; host or cells: CV-1 African Green Monkey kidney cells, transient transfection
T1 sequence (P55055 1-460): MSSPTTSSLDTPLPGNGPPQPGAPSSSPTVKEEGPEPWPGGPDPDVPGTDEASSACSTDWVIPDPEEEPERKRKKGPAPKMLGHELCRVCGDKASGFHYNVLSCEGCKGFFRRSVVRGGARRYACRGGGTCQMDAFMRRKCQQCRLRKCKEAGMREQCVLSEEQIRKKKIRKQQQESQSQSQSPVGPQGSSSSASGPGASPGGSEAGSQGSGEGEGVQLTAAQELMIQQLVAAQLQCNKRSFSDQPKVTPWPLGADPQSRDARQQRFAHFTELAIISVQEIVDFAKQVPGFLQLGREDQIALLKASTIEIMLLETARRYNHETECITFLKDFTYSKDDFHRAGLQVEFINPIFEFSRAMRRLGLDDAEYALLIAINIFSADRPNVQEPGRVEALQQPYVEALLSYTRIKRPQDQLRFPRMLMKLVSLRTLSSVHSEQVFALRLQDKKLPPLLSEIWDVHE
T1 sequence (P19793 1-462 partner): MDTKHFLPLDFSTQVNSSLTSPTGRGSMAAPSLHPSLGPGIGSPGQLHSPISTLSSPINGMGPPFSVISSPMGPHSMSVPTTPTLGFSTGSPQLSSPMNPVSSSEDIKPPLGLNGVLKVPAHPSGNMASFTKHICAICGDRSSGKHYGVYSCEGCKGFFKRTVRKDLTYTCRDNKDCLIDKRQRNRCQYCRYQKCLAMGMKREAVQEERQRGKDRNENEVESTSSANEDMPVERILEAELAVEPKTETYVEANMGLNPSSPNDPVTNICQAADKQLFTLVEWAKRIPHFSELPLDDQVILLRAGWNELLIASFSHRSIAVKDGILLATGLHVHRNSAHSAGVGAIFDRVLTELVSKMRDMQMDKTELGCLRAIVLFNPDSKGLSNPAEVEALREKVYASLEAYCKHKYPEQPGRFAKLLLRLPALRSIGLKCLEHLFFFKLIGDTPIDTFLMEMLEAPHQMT
Description: LXR/LXRE co-transfection assay (luciferase reporter, CV-1 cells). Format: cell-based. The following applies: for Emax: CV-1, average percent efficacy, relative to control N-(3-((4-fluorophenyl)-(naphthalene-2-sulfonyl)amino)propyl)-2,2-dimethylpropionamide, read-out: % Eff(b); for EC50: average EC50 for agonism, cotransfection assay, CV-1 cells. An excerpt: To measure the ability of compounds to activate or inhibit the transcriptional activity of LXR in a cell based assay, the co-transfection assay was used. It has been shown that LXR functions as a heterodimer with RXR. For the co-transfection assay, expression plasmids for LXR and RXR are introduced via transient transfection into mammalian cells along with a luciferase reporter plasmid that contains one copy of a DNA sequence that is bound by LXR-RXR heterodimers (LXRE; Willy, P. et al. 1995). Treatment of transfected cells with an LXR agonist increases the transcriptional activity of LXR, which is measured by an increase in luciferase activity.
1. CV-1 African Green Monkey Kidney Cells
2. Co-transfection expression plasmids, comprising full-length LXR α (pCMX-hLXR α), LXR β (pCMX-hLXR β), or RXR α (pCMX-RXR), reporter plasmid (LXREx1-Tk-Luciferase), and control (pCMX-Galactosidase expression vector) (Willey et al. Genes & Development 9 1033-1045 (1995)).
CV-1 cells were prepared 24 hours prior to the experiment by plating them into T-175 flasks or 500 cm^2 dishes in order to achieve 70-80% confluency on the day of the transfection. The number of cells to be transfected was determined by the number of plates to be screened. Each 384 well plate requires 1.92×10^6 cells or 5000 cells per well. DNA Transfection Reagent was prepared by mixing the required plasmid DNAs with a cationic lipid transfection reagent FuGENE6 (Roche) by following the instructions provided with the reagents. Optimal DNA amounts were determined empirically per cell line and size of vessel to be transfected. 10-12 mL of media was added to the DNA Transfection Reagent and this mixture was added to the cells after aspirating media from the T175 cm^2 flask. Cells were then incubated at least 5 hours at 37° C. to prepare screening cells.
Luciferase assay reagent was prepared by combining before use (per 10 mL):
Assay plates were prepared by dispensing 5 μL of compound per well of a 384 well plate to achieve final compound concentration of 10 μM and no more than 1% DMSO. Media was removed from the screening cells, the cells trypsinized, harvested cells by centrifugation, counted, and plated at a density of approximately 5000 cells per well in the 384 well assay plate prepared above in a volume of about 45 μL. Assay plates containing both compounds and screening cells (50 μL in total volume) were incubated for 20 hours at 37° C.
After incubation with compounds, media was removed from the cells and lysis buffer (30 μuL/well) added. After 30 minutes at ambient temperature, luciferase assay buffer (30 μL/well) was added and the assay plates read on a luminometer (PE Biosystems Northstar reader with on-board injectors, or equivalent). Plates were read immediately after addition of luciferase assay buffer.
The LXR/LXRE co-transfection assay can be used to establish the EC50/IC50 values for potency and percent activity or inhibition for efficacy. Efficacy defines the activity of a compound relative to a high control ((N-(3-((4-fluorophenyl)-(naphthalene-2-sulfonyl)amino)propyl)-2,2-dimethylpropionamide)) or a low control (DMSO/vehicle). The dose response curves are generated from an 8 point curve with concentrations differing by ½ LOG units. Each point represents the average of 4 wells of data from a 384 well plate.
The data from this assay is fitted to the following equation, from the EC50 value may be solved: Y=Bottom+(Top-Bottom)/(1+10^((logEC50-X*HillSlope))
The EC50/IC50 is therefore defined as the concentration at which an agonist or antagonist elicits a response that is half way between the Top (maximum) and Bottom (baseline) values. The EC50/IC50 values represented are the averages of at least 3 independent experiments. […]
A general note: A reporter such as luciferase makes a cellular process visible.

One may read the EC50 as the concentration needed to bring the measured effect to its halfway point. Low values mean a more potent agent, high ones a less potent agent.

Take `Cc1cccc(-c2cc3ccccc3c(=O)n2Cc2ccccc2)c1` [2-benzyl-3-m-tolyl-2H-isoquinolin-1-one]: the Emax lay within 40 to 90% and the half-maximal effective concentration (EC50) was greater than 0.5 µM.

Regarding `CS(=O)(=O)c1ccc(-c2ccc(-c3cc4cccc(Cl)c4c(=O)n3Cc3ccc(F)cc3F)s2)cc1` [8-chloro-2-(2,4-difluorobenzyl)-3-[5-(4-methanesulfonylphenyl)thiophen-2-yl]-2H-isoquinolin-1-one], the Emax is greater than 90% and the EC50 was less than 0.01 µM.

With `O=c1c2c(Cl)cccc2cc(-c2ccc(Oc3ccccc3)cc2)n1Cc1cccs1` [8-chloro-3-(4-phenoxyphenyl)-2-thiophen-2-ylmethyl-2H-isoquinolin-1-one], the Emax is greater than 90% and the EC50 is 0.15 to 0.5 µM.

As to `Cc1ccc(Cn2c(-c3ccsc3)cc3ccccc3c2=O)c(C)c1` [2-(2,4-dimethylbenzyl)-3-thiophen-3-yl-2H-isoquinolin-1-one], the Emax lay within 40 to 90% and the EC50 was greater than 0.5 µM.

For `O=c1c2c(Cl)cccc2cc(-c2cc(-c3cc(C(F)(F)F)cc(C(F)(F)F)c3)co2)n1Cc1ccc(F)cc1F` [3-[4-(3,5-bis-trifluoromethylphenyl)furan-2-yl]-8-chloro-2-(2,4-difluorobenzyl)-2H-isoquinolin-1-one], the Emax was greater than 90% and the half-maximal effective concentration (EC50) lay within 0.01 to 0.15 µM.

With `Nc1ccc(-c2coc(-c3cc4cccc(Cl)c4c(=O)n3Cc3ccc(F)cc3F)c2)cc1C(F)(F)F` [3-[4-(4-amino-3-trifluoromethylphenyl)furan-2-yl]-8-chloro-2-(2,4-difluorobenzyl)-2H-isoquinolin-1-one], the Emax is greater than 90% and the 50% effective concentration (EC50) fell in the range of 0.01 to 0.15 µM.

Consider `O=c1c2c(Cl)cccc2cc(-c2ccc(Oc3ccccc3)cc2)n1Cc1ccc(F)cc1F` [8-chloro-2-(2,4-difluorobenzyl)-3-(4-phenoxyphenyl)-2H-isoquinolin-1-one], for which the Emax was greater than 90% and the EC50 was 0.01 to 0.15 µM.

Consider `O=c1c2c(Cl)cccc2cc(-c2ccc(Oc3ccccc3)cc2)n1CC1CCCCC1` [8-chloro-2-cyclohexylmethyl-3-(4-phenoxyphenyl)-2H-isoquinolin-1-one], for which the Emax was greater than 90% and the 50% effective concentration (EC50) was 0.15 to 0.5 µM.

On to `O=c1c2c(Cl)cccc2cc(-c2ccc(Oc3cnccn3)cc2)n1Cc1ccc(F)cc1F` [8-chloro-2-(2,4-difluorobenzyl)-3-[4-(pyrazin-2-yloxy)phenyl]-2H-isoquinolin-1-one], for which the Emax was greater than 90% and the EC50 lay in the range of 0.01 to 0.15 µM.

With `Cc1cccc(-c2cc3ccccc3c(=O)n2Cc2ccc(C)cc2C)c1` [2-(2,4-dimethylbenzyl)-3-m-tolyl-2H-isoquinolin-1-one], the Emax lay within 40 to 90% and the EC50 is greater than 0.5 µM.

With `Cc1ccc(Cn2c(-c3ccc(Oc4ccccc4)cc3)cc3cccc(C)c3c2=O)cc1` [8-methyl-2-(4-methylbenzyl)-3-(4-phenoxyphenyl)-2H-isoquinolin-1-one], the Emax was in the range of 40 to 90% and the half-maximal effective concentration (EC50) was in the range of 0.01 to 0.15 µM.

On to `Cc1ccc(Cn2c(-c3ccc(Oc4ccccc4)cc3)cc3ccccc3c2=O)c(C)c1` [2-(2,4-dimethylbenzyl)-3-(4-phenoxyphenyl)-2H-isoquinolin-1-one], for which the Emax is greater than 90% and the half-maximal effective concentration (EC50) was 0.01 to 0.15 µM.

Regarding `CCOc1ccc(-c2csc(-c3cc4cccc(Cl)c4c(=O)n3Cc3ccc(F)cc3F)c2)cc1Cl` [8-chloro-3-[4-(3-chloro-4-ethoxyphenyl)thiophen-2-yl]-2-(2,4-difluorobenzyl)-2H-isoquinolin-1-one], the Emax is greater than 90% and the concentration giving a half-maximal response (EC50) is 0.01 to 0.15 µM.

On to `Cc1ccc(Cn2c(C#CC(C)(C)O)cc3ccccc3c2=O)c(C)c1` [2-(2,4-dimethylbenzyl)-3-(3-hydroxy-3-methylbut-1-ynyl)-2H-isoquinolin-1-one], for which the Emax lay within 40 to 90% and the EC50 was greater than 0.5 µM.
